Test results reported in patent US10004701B2, “Methods and compositions for treating infection” (UNIVERSITY OF ROCHESTER, priority 2012, dated 2018).
Read-outs that look alike come from different tables or passages of the source.

Columns and labels:
Assay in all cases: AK assay 384-well format, Prestwick library screening
[1] = tested on: A. baumannii strain 98-37-09; format: cell-based, Acinetobacter baumannii; settings: for fold induction at 50 µM: Acinetobacter baumannii, 983709, 3 h
E. cloacae = format: cell-based, Enterobacter cloacae; settings: for fold induction at 50 µM: Enterobacter cloacae, 3 h
[2] = tested on: S. aureus strain USA300-0114; format: cell-based, Staphylococcus aureus; settings: for fold induction at 50 µM: Staphylococcus aureus, USA300, 3 h
E. coli = format: cell-based, Escherichia coli; settings: for fold induction at 50 µM: Escherichia coli, 3 h
K. pneumoniae = format: cell-based, Klebsiella pneumoniae; settings: for fold induction at 50 µM: Klebsiella pneumoniae, 3 h
P. aeruginosa = format: cell-based, Pseudomonas aeruginosa; settings: for fold induction at 50 µM: Pseudomonas aeruginosa, 3 h
E. faecium = format: cell-based, Enterococcus faecium; settings: for fold induction at 50 µM: Enterococcus faecium, 3 h
[3] = 50 μM final drug concentration, planktonic, cutoff for positive 3-fold increase
[4] = 50 μM final drug concentration, planktonic, […]

## C[C@]12CC[C@H](O)C[C@@H]1CC[C@@H]1[C@@H]2CC[C@]2(C)C(=O)CC[C@@H]12 [Epiandrosterone]
[1]; read-out: AK-based Prestwick Library Screening Results, A. baumannii (increase in extracellular AK activity)
  fold induction at 50 µM: 0.8
E. cloacae; read-out: AK-based Prestwick Library Screening Results, E. cloacae (increase in extracellular AK activity)
  fold induction at 50 µM: 1.1
[2]; read-out: AK-based Prestwick Library Screening Results, S. aureus (increase in extracellular AK activity)
  fold induction at 50 µM: 0.6
E. coli; read-out: AK-based Prestwick Library Screening Results, E. coli (increase in extracellular AK activity)
  fold induction at 50 µM: 0.9
K. pneumoniae; read-out: AK-based Prestwick Library Screening Results, K. pneumoniae (increase in extracellular AK activity)
  fold induction at 50 µM: 0.7
P. aeruginosa; read-out: AK-based Prestwick Library Screening Results, P. aeruginosa (increase in extracellular AK activity)
  fold induction at 50 µM: 0.8
E. faecium; read-out: AK-based Prestwick Library Screening Results, E. faecium (increase in extracellular AK activity)
  fold induction at 50 µM: 1

## Oc1cc(O)c2c(c1)O[C@H](c1ccc(O)c(O)c1)[C@H](O)C2 [Epicatechin-(−)]
[1]; [3]
  AK-based Prestwick Library Screening Results, A. baumannii (fold increase in extracellular AK activity): 0.3
E. cloacae; [3]
  AK-based Prestwick Library Screening Results, E. cloacae (fold increase in extracellular AK activity): 0.3
[2]; [3]
  AK-based Prestwick Library Screening Results, S. aureus (fold increase in extracellular AK activity): 0.3
E. coli; [3]
  AK-based Prestwick Library Screening Results, E. coli (fold increase in extracellular AK activity): 0.4
K. pneumoniae; [3]
  AK-based Prestwick Library Screening Results, K. pneumoniae (fold increase in extracellular AK activity): 0.4
P. aeruginosa; [3]
  AK-based Prestwick Library Screening Results, P. aeruginosa (fold increase in extracellular AK activity): 0.3
E. faecium; [3]
  AK-based Prestwick Library Screening Results, E. faecium (fold increase in extracellular AK activity): 0.9

## COc1cc(C)nc(-n2nc(C)cc2OC)n1 [Epirizole]
[1]; 50 μM final drug concentration, 384-well format, cutoff for positive-scoring molecules 3-fold increase, read-out: AK-based Prestwick Library Screening Results, A. baumannii (increase in extracellular AK activity)
  fold induction at 50 µM: 0.9
E. cloacae; 50 μM final drug concentration, 384-well format, cutoff for positive-scoring molecules 3-fold increase, read-out: AK-based Prestwick Library Screening Results, E. cloacae (increase in extracellular AK activity)
  fold induction at 50 µM: 1.2
[2]; 50 μM final drug concentration, 384-well format, cutoff for positive-scoring molecules 3-fold increase, read-out: AK-based Prestwick Library Screening Results, S. aureus (increase in extracellular AK activity)
  fold induction at 50 µM: 2.2
E. coli; 50 μM final drug concentration, 384-well format, cutoff for positive-scoring molecules 3-fold increase, read-out: AK-based Prestwick Library Screening Results, E. coli (increase in extracellular AK activity)
  fold induction at 50 µM: 1
K. pneumoniae; 50 μM final drug concentration, 384-well format, cutoff for positive-scoring molecules 3-fold increase, read-out: AK-based Prestwick Library Screening Results, K. pneumoniae (increase in extracellular AK activity)
  fold induction at 50 µM: 0.7
P. aeruginosa; 50 μM final drug concentration, 384-well format, cutoff for positive-scoring molecules 3-fold increase, read-out: AK-based Prestwick Library Screening Results, P. aeruginosa (increase in extracellular AK activity)
  fold induction at 50 µM: 0.8
E. faecium; 50 μM final drug concentration, 384-well format, cutoff for positive-scoring molecules 3-fold increase, read-out: AK-based Prestwick Library Screening Results, E. faecium (increase in extracellular AK activity)
  fold induction at 50 µM: 0.8

## C[C@]12C[C@H]3S[C@H]3C[C@@H]1CC[C@@H]1[C@@H]2CC[C@]2(C)[C@@H](O)CC[C@@H]12 [Epitiostanol]
[1]; planktonic A. baumannii, 50 μM final drug concentration, […], read-out: AK-based Prestwick library screening result, A. baumannii (fold increase in extracellular AK activity)
  fold induction at 50 µM: 1.1
E. cloacae; planktonic E. cloacae, 50 μM final drug concentration, […], read-out: AK-based Prestwick library screening result, E. cloacae (fold increase in extracellular AK activity)
  fold induction at 50 µM: 1.3
[2]; planktonic S. aureus, 50 μM final drug concentration, […], read-out: AK-based Prestwick library screening result, S. aureus (fold increase in extracellular AK activity)
  fold induction at 50 µM: 0.9
E. coli; planktonic E. coli, 50 μM final drug concentration, […], read-out: AK-based Prestwick library screening result, E. coli (fold increase in extracellular AK activity)
  fold induction at 50 µM: 1.2
K. pneumoniae; planktonic K. pneumoniae, 50 μM final drug concentration, […], read-out: AK-based Prestwick library screening result, K. pneumoniae (fold increase in extracellular AK activity)
  fold induction at 50 µM: 0.9
P. aeruginosa; planktonic P. aeruginosa, 50 μM final drug concentration, […], read-out: AK-based Prestwick library screening result, P. aeruginosa (fold increase in extracellular AK activity)
  fold induction at 50 µM: 1.1
E. faecium; planktonic E. faecium, 50 μM final drug concentration, […], read-out: AK-based Prestwick library screening result, E. faecium (fold increase in extracellular AK activity)
  fold induction at 50 µM: 1

## CC[C@]12CCCN3CCc4c(n(c5ccccc45)[C@](O)(C(=O)OC)C1)[C@@H]32 [Epivincamine]
[1]; [4]
  AK-based Prestwick Library Screening Results, A. baumannii (fold increase in extracellular AK activity): 1.2
E. cloacae; [4]
  AK-based Prestwick Library Screening Results, E. cloacae (fold increase in extracellular AK activity): 1.6
[2]; [4]
  AK-based Prestwick Library Screening Results, S. aureus (fold increase in extracellular AK activity): 1.0
E. coli; [4]
  AK-based Prestwick Library Screening Results, E. coli (fold increase in extracellular AK activity): 1.3
K. pneumoniae; [4]
  AK-based Prestwick Library Screening Results, K. pneumoniae (fold increase in extracellular AK activity): 1.2
P. aeruginosa; [4]
  AK-based Prestwick Library Screening Results, P. aeruginosa (fold increase in extracellular AK activity): 1.2
E. faecium; [4]
  AK-based Prestwick Library Screening Results, E. faecium (fold increase in extracellular AK activity): 1.0

## C[C@]12CC[C@H]3C(=CCc4cc(O)ccc43)[C@@H]1CCC2=O [Equilin]
[1]; read-out: AK-based Prestwick Library Screening Results, A. baumannii (fold increase in extracellular AK activity)
  fold induction at 50 µM: 1
E. cloacae; read-out: AK-based Prestwick Library Screening Results, E. cloacae (fold increase in extracellular AK activity)
  fold induction at 50 µM: 1.4
[2]; read-out: AK-based Prestwick Library Screening Results, S. aureus (fold increase in extracellular AK activity)
  fold induction at 50 µM: 3.9
E. coli; read-out: AK-based Prestwick Library Screening Results, E. coli (fold increase in extracellular AK activity)
  fold induction at 50 µM: 1.3
K. pneumoniae; read-out: AK-based Prestwick Library Screening Results, K. pneumoniae (fold increase in extracellular AK activity)
  fold induction at 50 µM: 0.9
P. aeruginosa; read-out: AK-based Prestwick Library Screening Results, P. aeruginosa (fold increase in extracellular AK activity)
  fold induction at 50 µM: 1.1
E. faecium; read-out: AK-based Prestwick Library Screening Results, E. faecium (fold increase in extracellular AK activity)
  fold induction at 50 µM: 1

## CC(C)C[C@H]1C(=O)N2CCC[C@H]2[C@]2(O)O[C@](NC(=O)[C@@H]3C=C4c5cccc6[nH]cc(c56)C[C@H]4N(C)C3)(C(C)C)C(=O)N12 [Ergocryptine-alpha]
[1]; [4]
  AK-based Prestwick Library Screening Results, A. baumannii (fold increase in extracellular AK activity): 0.5
E. cloacae; [4]
  AK-based Prestwick Library Screening Results, E. cloacae (fold increase in extracellular AK activity): 0.4
[2]; [4]
  AK-based Prestwick Library Screening Results, S. aureus (fold increase in extracellular AK activity): 0.2
E. coli; [4]
  AK-based Prestwick Library Screening Results, E. coli (fold increase in extracellular AK activity): 0.4
K. pneumoniae; [4]
  AK-based Prestwick Library Screening Results, K. pneumoniae (fold increase in extracellular AK activity): 0.5
P. aeruginosa; [4]
  AK-based Prestwick Library Screening Results, P. aeruginosa (fold increase in extracellular AK activity): 0.4
E. faecium; [4]
  AK-based Prestwick Library Screening Results, E. faecium (fold increase in extracellular AK activity): 0.7

## O=c1ccc2cc(O)c(O)cc2o1 [Esculetin]
[1]; 50 μM final drug concentration, […], read-out: AK-based Prestwick Library Screening Results, A. baumannii (fold increase in extracellular AK activity)
  fold induction at 50 µM: 1.1
E. cloacae; 50 μM final drug concentration, […], read-out: AK-based Prestwick Library Screening Results, E. cloacae (fold increase in extracellular AK activity)
  fold induction at 50 µM: 1.4
[2]; 50 μM final drug concentration, […], read-out: AK-based Prestwick Library Screening Results, S. aureus (fold increase in extracellular AK activity)
  fold induction at 50 µM: 1.1
E. coli; 50 μM final drug concentration, […], read-out: AK-based Prestwick Library Screening Results, E. coli (fold increase in extracellular AK activity)
  fold induction at 50 µM: 1.4
K. pneumoniae; 50 μM final drug concentration, […], read-out: AK-based Prestwick Library Screening Results, K. pneumoniae (fold increase in extracellular AK activity)
  fold induction at 50 µM: 1.2
P. aeruginosa; 50 μM final drug concentration, […], read-out: AK-based Prestwick Library Screening Results, P. aeruginosa (fold increase in extracellular AK activity)
  fold induction at 50 µM: 0.9
E. faecium; 50 μM final drug concentration, […], read-out: AK-based Prestwick Library Screening Results, E. faecium (fold increase in extracellular AK activity)
  fold induction at 50 µM: 1

## O=c1ccc2cc(O[C@@H]3O[C@H](CO)[C@@H](O)[C@H](O)[C@H]3O)c(O)cc2o1 [Esculin Hydrate]
[1]; 50 μM final drug concentration, planktonic, […], read-out: AK-based Prestwick Library Screening Results, A. baumannii (fold increase in extracellular AK activity)
  fold induction at 50 µM: 0.8
E. cloacae; 50 μM final drug concentration, planktonic, […], read-out: AK-based Prestwick Library Screening Results, E. cloacae (fold increase in extracellular AK activity)
  fold induction at 50 µM: 0.9
[2]; 50 μM final drug concentration, planktonic, […], read-out: AK-based Prestwick Library Screening Results, S. aureus (fold increase in extracellular AK activity)
  fold induction at 50 µM: 0.7
E. coli; 50 μM final drug concentration, planktonic, […], read-out: AK-based Prestwick Library Screening Results, E. coli (fold increase in extracellular AK activity)
  fold induction at 50 µM: 0.7
K. pneumoniae; 50 μM final drug concentration, planktonic, […], read-out: AK-based Prestwick Library Screening Results, K. pneumoniae (fold increase in extracellular AK activity)
  fold induction at 50 µM: 0.6
P. aeruginosa; 50 μM final drug concentration, planktonic, […], read-out: AK-based Prestwick Library Screening Results, P. aeruginosa (fold increase in extracellular AK activity)
  fold induction at 50 µM: 0.8
E. faecium; 50 μM final drug concentration, planktonic, […], read-out: AK-based Prestwick Library Screening Results, E. faecium (fold increase in extracellular AK activity)
  fold induction at 50 µM: 0.9

## CNC(=O)Oc1ccc2c(c1)[C@]1(C)CCN(C)[C@@H]1N2C.CNC(=O)Oc1ccc2c(c1)[C@]1(C)CCN(C)[C@@H]1N2C.O=S(=O)(O)O [Eserine sulfate, physostigmine sulfate]
[1]; planktonic A. baumannii, 50 μM final drug concentration, […]
  AK-based Prestwick Library Screening Results, A. baumannii (increase in extracellular AK activity): 0.5
E. cloacae; planktonic E. cloacae, 50 μM final drug concentration, […]
  AK-based Prestwick Library Screening Results, E. cloacae (increase in extracellular AK activity): 0.7
[2]; planktonic S. aureus, 50 μM final drug concentration, […]
  AK-based Prestwick Library Screening Results, S. aureus (increase in extracellular AK activity): 0.4
E. coli; planktonic E. coli, 50 μM final drug concentration, […]
  AK-based Prestwick Library Screening Results, E. coli (increase in extracellular AK activity): 0.7
K. pneumoniae; planktonic K. pneumoniae, 50 μM final drug concentration, […]
  AK-based Prestwick Library Screening Results, K. pneumoniae (increase in extracellular AK activity): 0.5
P. aeruginosa; planktonic P. aeruginosa, 50 μM final drug concentration, […]
  AK-based Prestwick Library Screening Results, P. aeruginosa (increase in extracellular AK activity): 0.6
E. faecium; planktonic E. faecium, 50 μM final drug concentration, […]
  AK-based Prestwick Library Screening Results, E. faecium (increase in extracellular AK activity): 0.9
